What was measured:
mGluR5 = experiment: PDSP primary binding, mGluR5; settings: 10 µM, n = 4
Method: (§1) For experimental details, please refer to the Psychoactive Drug Screening Program (PDSP) web site http://pdsp.med.unc.edu/.
(§2) ^a The default concentration for primary binding experiments is 10 µM (n = 4). ^b Negative inhibition represents a stimulation of binding. ^c BZPR: Benzodiazepine Receptors (rat brain site). ^d DOR: Delta Opioid Receptor; KOR: Kappa Opioid Receptor; MOR: Mu Opioid Receptor. ^e DAT: Dopamine Transporter; NET: Norepinephrine Transporter; SERT: Serotonin Transporter. ^f NMDA: N-methyl-D-aspartate receptor.

α2B adrenergic receptor = molecular target: T1, α2B adrenergic receptor (Homo sapiens, UniProt P18089); experiment: PDSP primary binding, α2B; settings: n = 4, read-out: Inhibition (primary binding competition efficacy), α2B
T1 construct: purchased NIMH Psychoactive Drug Screening Program (PDSP)
Method: as §1, §2

D4 dopamine receptor = molecular target: T2, D4 dopamine receptor (Homo sapiens, UniProt P21917); experiment: PDSP primary binding, D4; settings: n = 4, read-out: Inhibition (primary binding competition efficacy), D4
T2 construct: purchased NIMH Psychoactive Drug Screening Program (PDSP)
Method: as §1, §2

β3 adrenergic receptor = molecular target: T3, β3 adrenergic receptor (Homo sapiens, UniProt P13945); experiment: PDSP primary binding, β3; settings: n = 4, read-out: Inhibition (primary binding competition efficacy), β3
T3 construct: purchased NIMH Psychoactive Drug Screening Program (PDSP)
Method: as §1, §2

5-HT2A = molecular target: T4, 5-HT2A (Homo sapiens, UniProt P28223); experiment: PDSP primary binding, 5-HT2A; settings: n = 4, read-out: Inhibition (primary binding competition efficacy), 5-HT2A
T4 construct: purchased NIMH Psychoactive Drug Screening Program (PDSP)
Method: as §1, §2

MOR: Mu Opioid Receptor = molecular target: T5, MOR: Mu Opioid Receptor (Homo sapiens, UniProt P35372); experiment: PDSP primary binding, MOR; settings: n = 4, read-out: Inhibition (primary binding competition efficacy), MOR
T5 construct: purchased NIMH Psychoactive Drug Screening Program (PDSP)
Method: as §1, §2

α2C adrenergic receptor = molecular target: T6, α2C adrenergic receptor (Homo sapiens, UniProt P18825); experiment: PDSP primary binding, α2C; settings: n = 4, read-out: Inhibition (primary binding competition efficacy), α2C
T6 construct: purchased NIMH Psychoactive Drug Screening Program (PDSP)
Method: as §1, §2

PBR = molecular target: T7, PBR (Rattus norvegicus, UniProt P16257); experiment: PDSP primary binding, PBR; settings: n = 4, read-out: Inhibition (primary binding competition efficacy), PBR
T7 construct: purchased NIMH Psychoactive Drug Screening Program (PDSP)
T7 sequence (P16257 whole entry): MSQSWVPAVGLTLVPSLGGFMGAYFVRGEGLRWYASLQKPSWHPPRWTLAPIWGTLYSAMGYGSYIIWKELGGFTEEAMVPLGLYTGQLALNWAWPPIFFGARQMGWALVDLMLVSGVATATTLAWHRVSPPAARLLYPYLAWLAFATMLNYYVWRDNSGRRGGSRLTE
Method: as §1, §2

D3 dopamine receptor = molecular target: T8, D3 dopamine receptor (Homo sapiens, UniProt P35462); experiment: PDSP primary binding, D3; settings: n = 4, read-out: Inhibition (primary binding competition efficacy), D3
T8 construct: purchased NIMH Psychoactive Drug Screening Program (PDSP)
Method: as §1, §2

5-HT2C = molecular target: T9, 5-HT2C (Homo sapiens, UniProt P28335); experiment: PDSP primary binding, 5-HT2C; settings: n = 4, read-out: Inhibition (primary binding competition efficacy), 5-HT2C
T9 construct: purchased NIMH Psychoactive Drug Screening Program (PDSP)
T9 sequence (P28335 33-458): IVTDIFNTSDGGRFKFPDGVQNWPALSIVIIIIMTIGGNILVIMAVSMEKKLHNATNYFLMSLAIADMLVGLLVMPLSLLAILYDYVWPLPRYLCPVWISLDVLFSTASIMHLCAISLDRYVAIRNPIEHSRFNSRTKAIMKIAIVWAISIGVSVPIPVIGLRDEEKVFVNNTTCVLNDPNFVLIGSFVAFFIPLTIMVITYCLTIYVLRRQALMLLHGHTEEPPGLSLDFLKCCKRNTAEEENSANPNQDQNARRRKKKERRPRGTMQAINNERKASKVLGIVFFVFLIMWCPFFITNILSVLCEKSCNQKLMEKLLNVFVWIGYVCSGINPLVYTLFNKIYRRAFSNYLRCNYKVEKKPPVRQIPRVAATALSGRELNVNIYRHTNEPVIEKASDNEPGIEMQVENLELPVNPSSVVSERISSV
Method: as §1, §2

[1] = molecular target: hERG (human ether-a-go-go-related gene) (Homo sapiens, UniProt Q12809); experiment: hERG inhibition assay; settings: in words
hERG (human ether-a-go-go-related gene), sequence (Q12809 whole entry): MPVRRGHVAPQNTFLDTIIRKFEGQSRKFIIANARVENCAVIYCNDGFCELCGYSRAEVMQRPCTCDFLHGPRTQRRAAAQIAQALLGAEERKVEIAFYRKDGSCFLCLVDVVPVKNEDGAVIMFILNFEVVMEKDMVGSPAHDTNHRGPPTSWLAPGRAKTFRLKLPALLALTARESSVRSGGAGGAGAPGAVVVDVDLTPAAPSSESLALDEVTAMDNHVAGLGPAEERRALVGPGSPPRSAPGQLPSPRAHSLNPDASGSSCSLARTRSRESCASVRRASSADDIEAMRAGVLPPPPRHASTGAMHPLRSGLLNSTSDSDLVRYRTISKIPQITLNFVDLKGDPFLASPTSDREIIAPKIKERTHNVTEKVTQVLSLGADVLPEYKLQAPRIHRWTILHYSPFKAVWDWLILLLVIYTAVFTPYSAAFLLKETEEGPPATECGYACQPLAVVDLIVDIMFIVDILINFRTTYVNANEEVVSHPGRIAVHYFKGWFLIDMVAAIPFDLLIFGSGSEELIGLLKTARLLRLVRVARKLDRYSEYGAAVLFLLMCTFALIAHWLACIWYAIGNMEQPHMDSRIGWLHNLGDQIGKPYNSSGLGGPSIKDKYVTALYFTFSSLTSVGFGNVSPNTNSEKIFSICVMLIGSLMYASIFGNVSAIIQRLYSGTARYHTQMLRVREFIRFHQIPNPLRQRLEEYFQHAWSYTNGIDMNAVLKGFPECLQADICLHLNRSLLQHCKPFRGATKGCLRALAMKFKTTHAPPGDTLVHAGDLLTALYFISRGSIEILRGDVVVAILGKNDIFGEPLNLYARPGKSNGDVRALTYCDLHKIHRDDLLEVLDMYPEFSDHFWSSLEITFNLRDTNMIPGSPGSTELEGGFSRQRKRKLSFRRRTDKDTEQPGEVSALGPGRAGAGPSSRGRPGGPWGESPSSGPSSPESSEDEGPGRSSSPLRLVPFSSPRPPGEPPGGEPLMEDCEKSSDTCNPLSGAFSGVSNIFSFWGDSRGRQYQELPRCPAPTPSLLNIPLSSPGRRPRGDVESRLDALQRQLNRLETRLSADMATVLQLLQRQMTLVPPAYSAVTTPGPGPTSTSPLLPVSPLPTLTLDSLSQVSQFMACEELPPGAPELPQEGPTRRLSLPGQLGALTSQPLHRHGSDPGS

[2] = set-up: method as in Yuan et al. [2013]; settings: ref Yuan et al. [2013]; cited from earlier work
5-HT1E = molecular target: T10, 5-HT1E (Homo sapiens, UniProt P28566); experiment: PDSP primary binding, 5-HT1E; settings: n = 4, read-out: Inhibition (primary binding competition efficacy), 5-HT1E
T10 construct: purchased NIMH Psychoactive Drug Screening Program (PDSP)
T10 sequence (P28566 whole entry): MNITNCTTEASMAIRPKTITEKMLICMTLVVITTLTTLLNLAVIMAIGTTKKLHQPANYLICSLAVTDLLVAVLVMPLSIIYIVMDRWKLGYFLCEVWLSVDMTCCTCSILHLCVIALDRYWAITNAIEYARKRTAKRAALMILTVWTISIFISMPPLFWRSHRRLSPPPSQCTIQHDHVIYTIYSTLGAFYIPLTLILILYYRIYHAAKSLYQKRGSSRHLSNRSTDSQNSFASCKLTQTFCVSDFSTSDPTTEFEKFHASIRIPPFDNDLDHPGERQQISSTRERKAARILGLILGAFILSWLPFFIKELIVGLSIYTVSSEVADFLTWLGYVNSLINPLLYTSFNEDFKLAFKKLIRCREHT
Method: as §1, §2

[3] = molecular target: T11, KOR: Kappa Opioid Receptor (Homo sapiens, UniProt P41145); experiment: PDSP primary binding, KOR; settings: n = 4, read-out: Inhibition (primary binding competition efficacy), KOR
T11 construct: purchased NIMH Psychoactive Drug Screening Program (PDSP)
Method: as §1, §2

[4] = Bacterial cytotoxicity, strain TA1535; type: cell-based; settings: Salmonella typhimurium, bacterial tester strain TA1535 without S9, read-out: Cytotoxicity (% of Control Values)
Description: Supplement prp20002-e00026-sd1.doc, table 4: Table 4.

5-HT5A = molecular target: T12, 5-HT5A (Homo sapiens, UniProt P47898); experiment: PDSP primary binding, 5-HT5A; settings: n = 4, read-out: Inhibition (primary binding competition efficacy), 5-HT5A
T12 construct: purchased NIMH Psychoactive Drug Screening Program (PDSP)
T12 sequence (P47898 whole entry): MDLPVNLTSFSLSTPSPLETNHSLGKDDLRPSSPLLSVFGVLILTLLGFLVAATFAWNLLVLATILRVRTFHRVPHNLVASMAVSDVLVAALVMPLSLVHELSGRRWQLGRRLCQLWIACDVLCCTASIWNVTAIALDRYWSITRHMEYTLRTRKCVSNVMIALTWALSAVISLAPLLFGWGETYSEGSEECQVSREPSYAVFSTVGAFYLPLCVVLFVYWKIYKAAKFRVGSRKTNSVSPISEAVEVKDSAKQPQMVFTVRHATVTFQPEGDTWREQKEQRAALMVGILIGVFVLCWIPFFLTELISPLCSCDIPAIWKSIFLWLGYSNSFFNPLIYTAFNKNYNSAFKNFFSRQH
Method: as §1, §2

M5 muscarinic receptor = molecular target: T13, M5 muscarinic receptor (Homo sapiens, UniProt P08912); experiment: PDSP primary binding, M5; settings: n = 4, read-out: Inhibition (primary binding competition efficacy), M5
T13 construct: purchased NIMH Psychoactive Drug Screening Program (PDSP)
T13 sequence (P08912 whole entry): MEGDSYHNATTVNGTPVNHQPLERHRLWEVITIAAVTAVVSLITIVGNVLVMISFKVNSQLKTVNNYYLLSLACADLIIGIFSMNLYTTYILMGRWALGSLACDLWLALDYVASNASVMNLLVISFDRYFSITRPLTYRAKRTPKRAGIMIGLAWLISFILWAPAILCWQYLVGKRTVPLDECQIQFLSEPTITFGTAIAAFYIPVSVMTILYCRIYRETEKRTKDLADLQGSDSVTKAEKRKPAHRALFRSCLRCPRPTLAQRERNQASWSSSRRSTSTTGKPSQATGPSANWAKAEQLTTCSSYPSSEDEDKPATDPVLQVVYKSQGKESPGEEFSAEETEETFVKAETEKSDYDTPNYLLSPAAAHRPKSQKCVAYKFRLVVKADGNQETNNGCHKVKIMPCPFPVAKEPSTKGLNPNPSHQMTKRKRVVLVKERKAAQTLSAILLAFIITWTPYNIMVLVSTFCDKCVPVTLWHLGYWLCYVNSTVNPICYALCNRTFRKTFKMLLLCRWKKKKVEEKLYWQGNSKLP
Method: as §1, §2

D1 dopamine receptor = molecular target: T14, D1 dopamine receptor (Homo sapiens, UniProt P21728); experiment: PDSP primary binding, D1; settings: n = 4, read-out: Inhibition (primary binding competition efficacy), D1
T14 construct: purchased NIMH Psychoactive Drug Screening Program (PDSP)
T14 sequence (P21728 whole entry): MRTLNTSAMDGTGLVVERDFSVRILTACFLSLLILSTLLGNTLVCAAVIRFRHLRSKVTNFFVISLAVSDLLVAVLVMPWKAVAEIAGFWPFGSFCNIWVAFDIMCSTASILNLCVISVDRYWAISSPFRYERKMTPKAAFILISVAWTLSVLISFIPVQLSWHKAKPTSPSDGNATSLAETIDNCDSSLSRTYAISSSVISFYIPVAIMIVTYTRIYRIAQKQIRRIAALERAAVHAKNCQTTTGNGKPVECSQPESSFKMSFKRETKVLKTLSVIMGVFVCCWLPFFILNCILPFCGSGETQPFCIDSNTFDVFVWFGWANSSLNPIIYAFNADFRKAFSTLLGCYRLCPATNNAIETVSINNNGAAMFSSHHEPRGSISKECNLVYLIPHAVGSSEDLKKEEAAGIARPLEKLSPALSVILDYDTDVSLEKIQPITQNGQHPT
Method: as §1, §2

CB2 = molecular target: T15, CB2 (Homo sapiens, UniProt P34972); experiment: PDSP primary binding, CB2; settings: n = 4, read-out: Inhibition (primary binding competition efficacy), CB2
T15 construct: purchased NIMH Psychoactive Drug Screening Program (PDSP)
Method: as §1, §2

α1B adrenergic receptor = molecular target: T16, α1B adrenergic receptor (Homo sapiens, UniProt P35368); experiment: PDSP primary binding, α1B; settings: n = 4, read-out: Inhibition (primary binding competition efficacy), α1B
T16 construct: purchased NIMH Psychoactive Drug Screening Program (PDSP)
T16 sequence (P35368 whole entry): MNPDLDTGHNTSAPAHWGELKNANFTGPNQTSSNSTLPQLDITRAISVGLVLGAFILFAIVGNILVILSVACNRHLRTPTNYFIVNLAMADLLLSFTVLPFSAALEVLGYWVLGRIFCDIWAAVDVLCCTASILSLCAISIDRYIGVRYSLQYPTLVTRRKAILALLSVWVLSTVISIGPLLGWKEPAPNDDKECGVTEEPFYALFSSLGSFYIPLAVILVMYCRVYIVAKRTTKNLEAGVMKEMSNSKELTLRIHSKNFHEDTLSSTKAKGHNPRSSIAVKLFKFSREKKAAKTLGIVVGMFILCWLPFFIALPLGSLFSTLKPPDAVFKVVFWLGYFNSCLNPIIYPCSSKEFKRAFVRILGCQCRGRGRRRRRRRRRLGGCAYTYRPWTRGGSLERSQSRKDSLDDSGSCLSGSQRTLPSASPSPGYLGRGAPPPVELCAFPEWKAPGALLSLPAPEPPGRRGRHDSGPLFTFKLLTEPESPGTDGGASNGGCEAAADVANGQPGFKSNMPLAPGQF
Method: as §1, §2

Oxytocin = molecular target: T17, Oxytocin (Homo sapiens, UniProt P30559); experiment: PDSP primary binding, Oxytocin; settings: n = 4, read-out: Inhibition (primary binding competition efficacy), Oxytocin
T17 construct: purchased NIMH Psychoactive Drug Screening Program (PDSP)
T17 sequence (P30559 whole entry): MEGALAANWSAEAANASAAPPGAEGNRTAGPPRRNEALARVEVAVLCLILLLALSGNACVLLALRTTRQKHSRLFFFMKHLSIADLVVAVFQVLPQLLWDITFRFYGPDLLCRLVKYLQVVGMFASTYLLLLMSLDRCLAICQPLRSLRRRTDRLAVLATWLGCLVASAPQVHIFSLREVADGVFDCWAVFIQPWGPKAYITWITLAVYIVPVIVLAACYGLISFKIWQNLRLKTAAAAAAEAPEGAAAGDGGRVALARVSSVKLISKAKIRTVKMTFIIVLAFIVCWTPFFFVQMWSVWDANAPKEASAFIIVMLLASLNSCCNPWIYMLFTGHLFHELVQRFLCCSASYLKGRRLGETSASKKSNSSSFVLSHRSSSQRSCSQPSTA
Method: as §1, §2

H2 histamine receptor = molecular target: T18, H2 histamine receptor (Homo sapiens, UniProt P25021); experiment: PDSP primary binding, H2; settings: n = 4, read-out: Inhibition (primary binding competition efficacy), H2
T18 construct: purchased NIMH Psychoactive Drug Screening Program (PDSP)
Method: as §1, §2

[5] = Metabolic stability, liver microsomes, mouse; type: in vitro ADME; settings: CD-1, 1.0E-06 M, 1 h
[6] = Plasma and brain levels after NSF (UHPLC-MS-MS); type: in vivo, mouse
Method: The chamber floor is covered with bedding (∼0.5″). […] Samples are stored at −80°C until analysis.
Compound LF-3-99 (10 ng/mL, See Fig. S1 for structure) was used as an internal standard.

M2 muscarinic receptor = molecular target: T19, M2 muscarinic receptor (Homo sapiens, UniProt P08172); experiment: PDSP primary binding, M2; settings: n = 4, read-out: Inhibition (primary binding competition efficacy), M2
T19 construct: purchased NIMH Psychoactive Drug Screening Program (PDSP)
T19 sequence (P08172 whole entry): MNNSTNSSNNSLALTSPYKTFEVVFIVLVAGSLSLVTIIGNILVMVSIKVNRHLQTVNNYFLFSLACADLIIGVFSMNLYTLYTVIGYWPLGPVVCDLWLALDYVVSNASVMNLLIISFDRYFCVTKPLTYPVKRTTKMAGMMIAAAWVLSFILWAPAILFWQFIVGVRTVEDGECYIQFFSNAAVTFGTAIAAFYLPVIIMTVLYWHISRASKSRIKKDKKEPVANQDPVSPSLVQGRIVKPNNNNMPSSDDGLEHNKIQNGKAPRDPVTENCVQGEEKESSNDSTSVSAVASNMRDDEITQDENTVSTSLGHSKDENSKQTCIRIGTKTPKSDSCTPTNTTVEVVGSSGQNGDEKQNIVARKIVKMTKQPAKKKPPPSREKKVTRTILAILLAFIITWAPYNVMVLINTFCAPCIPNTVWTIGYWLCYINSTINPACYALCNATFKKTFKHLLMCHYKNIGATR
Method: as §1, §2

[7] = 5 mg/kg p.o., day 29, about 50-60 min after pretreatment

OCCc1cc(-c2cncc(OC[C@@H]3CCN3)c2)on1 [LF-3-88, 2-[5-[5-(2(S)-azetidinylmethoxyl)-3-pyridyl]-3-isoxazolyl]ethanol]
Inhibition (primary binding competition efficacy), mGluR5 (mGluR5): 6.6% | inhibition at 10 µM (α2B adrenergic receptor): -17.7% | inhibition at 10 µM (D4 dopamine receptor): -2.5% | inhibition at 10 µM (β3 adrenergic receptor): 28.3% | inhibition at 10 µM (5-HT2A): 34.1% | inhibition at 10 µM (MOR: Mu Opioid Receptor): 5.7% | inhibition at 10 µM (α2C adrenergic receptor): 17.2% | inhibition at 10 µM (PBR): -1.5% | inhibition at 10 µM (D3 dopamine receptor): 3% | inhibition at 10 µM (5-HT2C): 22.7% | profile in hERG inhibition assay [1]: favorable profile | absorption and blood-brain barrier crossing in vivo [2]: absorbed rapidly and crossed the blood–brain barrier | inhibition at 10 µM (5-HT1E): -3% | inhibition at 10 µM [3]: 3% | viability at 0.0001 M ([4]; strain TA1535 – S9, 1.0E-04 M): 117% | viability at 10 µM ([4]; strain TA1535 – S9, 1.0E-05 M): 97% | viability at 1.25 µM ([4]; strain TA1535 – S9, 1.25E-06 M): 105% | viability at 25 µM ([4]; strain TA1535 – S9, 2.5E-05 M): 104% | viability at 2.5 µM ([4]; strain TA1535 – S9, 2.5E-06 M): 102% | viability at 50 µM ([4]; strain TA1535 – S9, 5.0E-05 M): 109% | viability at 5 µM ([4]; strain TA1535 – S9, 5.0E-06 M): 100% | viability at 625 nM ([4]; strain TA1535 – S9, 6.25E-07 M): 99% | inhibition at 10 µM (5-HT5A): 13.2% | inhibition at 10 µM (M5 muscarinic receptor): -9.4% | inhibition at 10 µM (D1 dopamine receptor): 5.8% | inhibition at 10 µM (CB2): -7.3% | inhibition at 10 µM (α1B adrenergic receptor): -1.8% | inhibition at 10 µM (Oxytocin): 6.4% | inhibition at 10 µM (H2 histamine receptor): 39.5% | Remaining (metabolic stability) [5]: 81% | Plasma level [6, 7]: 430 ± 172 ng/mL | brain level [6, 7]: 14 ± 4 ng/g | Plasma level ([6]; 10 mg/kg p.o., day 29): 942 ± 400 ng/mL | brain level ([6]; 10 mg/kg p.o., day 29): 31 ± 11 ng/g | inhibition at 10 µM (M2 muscarinic receptor): 6.8%

— article PMC4184702 (Pharmacology Research & Perspectives, 2014)
